Reference: the kinase profiling compilation of Christmann-Franck et al. (2016)
Blank lines part the entries; values can stand above or below the compound they belong to.

Experiments:
Experiment in all cases: Caliper, Mobility shift assay off-chip
MAPK1 (human) = MAPK1 (human) (UniProt P28482)
TNK2 (human) = TNK2 (human) (UniProt Q07912); conditions: compound 10.0 µM
MERTK (human) = MERTK (human) (UniProt Q12866)
ROS1 (human) = ROS1 (human) (UniProt P08922)
MKNK2 (human) = MKNK2 (human) (UniProt Q9HBH9)
GSG2 (human) = GSG2 (human) (UniProt Q8TF76)
Chain of GSG2 (human) (Q8TF76 whole entry, looked up): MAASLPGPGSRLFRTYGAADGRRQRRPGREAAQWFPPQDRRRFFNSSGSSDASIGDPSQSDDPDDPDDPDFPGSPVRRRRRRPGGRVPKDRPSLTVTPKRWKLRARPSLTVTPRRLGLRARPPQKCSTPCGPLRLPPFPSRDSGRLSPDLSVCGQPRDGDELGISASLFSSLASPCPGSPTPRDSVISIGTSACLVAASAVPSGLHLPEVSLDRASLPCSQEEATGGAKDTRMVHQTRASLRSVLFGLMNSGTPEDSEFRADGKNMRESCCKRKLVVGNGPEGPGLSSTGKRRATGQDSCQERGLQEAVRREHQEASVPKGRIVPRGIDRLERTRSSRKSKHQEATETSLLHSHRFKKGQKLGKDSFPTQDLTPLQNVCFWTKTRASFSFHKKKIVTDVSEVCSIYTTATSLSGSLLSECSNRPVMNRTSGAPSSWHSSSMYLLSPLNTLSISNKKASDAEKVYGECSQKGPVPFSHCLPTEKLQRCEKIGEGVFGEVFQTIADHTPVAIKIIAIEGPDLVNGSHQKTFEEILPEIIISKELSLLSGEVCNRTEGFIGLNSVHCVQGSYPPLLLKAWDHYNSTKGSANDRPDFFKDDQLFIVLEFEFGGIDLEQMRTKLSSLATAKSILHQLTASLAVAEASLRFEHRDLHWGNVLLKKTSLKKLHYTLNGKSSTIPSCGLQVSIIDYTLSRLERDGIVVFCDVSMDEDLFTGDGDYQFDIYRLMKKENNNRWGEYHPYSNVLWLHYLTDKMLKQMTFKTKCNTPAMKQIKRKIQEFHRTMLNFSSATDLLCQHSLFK

HIPK3 (human) = HIPK3 (human) (UniProt Q9H422)
PIM3 (human) = PIM3 (human) (UniProt Q86V86)
PRKCD (human) = PRKCD (human) (UniProt Q05655)
[1] = test system: FGFR2 (human), P21802 [N549H]
AURKA (human) = AURKA (human) (UniProt O14965)
EPHA7 (human) = EPHA7 (human) (UniProt Q15375)
CSNK1G2 (human) = CSNK1G2 (human) (UniProt P78368)
EPHA1 (human) = EPHA1 (human) (UniProt P21709)
Chain of EPHA1 (human) (P21709 whole entry, looked up): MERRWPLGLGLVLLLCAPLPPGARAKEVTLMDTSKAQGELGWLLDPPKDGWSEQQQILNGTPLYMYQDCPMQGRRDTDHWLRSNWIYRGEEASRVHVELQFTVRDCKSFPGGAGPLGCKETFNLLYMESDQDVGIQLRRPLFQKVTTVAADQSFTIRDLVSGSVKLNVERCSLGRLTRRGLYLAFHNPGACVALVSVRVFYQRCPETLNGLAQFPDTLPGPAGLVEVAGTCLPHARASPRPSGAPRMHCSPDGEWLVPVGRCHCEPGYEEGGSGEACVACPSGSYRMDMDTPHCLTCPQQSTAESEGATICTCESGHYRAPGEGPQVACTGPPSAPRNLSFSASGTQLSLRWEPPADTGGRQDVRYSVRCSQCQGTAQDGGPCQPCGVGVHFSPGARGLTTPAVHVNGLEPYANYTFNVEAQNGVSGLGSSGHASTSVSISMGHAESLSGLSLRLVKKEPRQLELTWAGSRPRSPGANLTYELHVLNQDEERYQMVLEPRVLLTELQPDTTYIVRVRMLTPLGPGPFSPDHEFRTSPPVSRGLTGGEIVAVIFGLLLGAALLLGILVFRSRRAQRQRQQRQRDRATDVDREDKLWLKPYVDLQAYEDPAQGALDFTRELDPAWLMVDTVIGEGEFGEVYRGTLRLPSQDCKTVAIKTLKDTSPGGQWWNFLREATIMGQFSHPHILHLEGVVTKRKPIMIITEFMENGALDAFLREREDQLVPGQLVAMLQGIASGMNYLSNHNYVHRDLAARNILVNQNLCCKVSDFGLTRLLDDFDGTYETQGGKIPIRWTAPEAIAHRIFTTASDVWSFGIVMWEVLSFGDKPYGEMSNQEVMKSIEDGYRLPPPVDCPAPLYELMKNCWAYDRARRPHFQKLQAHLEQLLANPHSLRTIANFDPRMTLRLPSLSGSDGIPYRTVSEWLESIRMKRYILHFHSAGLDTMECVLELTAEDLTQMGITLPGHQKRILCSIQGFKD

INSRR (human) = INSRR (human) (UniProt P14616)
ROCK2 (human) = ROCK2 (human) (UniProt O75116)
[2] = test system: ABL1 (human), P00519 [T315I]
PKN2 (human) = PKN2 (human) (UniProt Q16513)
DAPK3 (human) = DAPK3 (human) (UniProt O43293)
DCLK2 (human) = DCLK2 (human) (UniProt Q8N568)
SRPK1 (human) = SRPK1 (human) (UniProt Q96SB4)
AKT3 (human) = AKT3 (human) (UniProt Q9Y243)
GSK3A (human) = GSK3A (human) (UniProt P49840)
BRSK1 (human) = BRSK1 (human) (UniProt Q8TDC3)
DDR2 (human) = DDR2 (human) (UniProt Q16832)
MYLK3 (human) = MYLK3 (human) (UniProt Q32MK0)
CHUK (human) = CHUK (human) (UniProt O15111)
Chain of CHUK (human) (O15111 whole entry, looked up): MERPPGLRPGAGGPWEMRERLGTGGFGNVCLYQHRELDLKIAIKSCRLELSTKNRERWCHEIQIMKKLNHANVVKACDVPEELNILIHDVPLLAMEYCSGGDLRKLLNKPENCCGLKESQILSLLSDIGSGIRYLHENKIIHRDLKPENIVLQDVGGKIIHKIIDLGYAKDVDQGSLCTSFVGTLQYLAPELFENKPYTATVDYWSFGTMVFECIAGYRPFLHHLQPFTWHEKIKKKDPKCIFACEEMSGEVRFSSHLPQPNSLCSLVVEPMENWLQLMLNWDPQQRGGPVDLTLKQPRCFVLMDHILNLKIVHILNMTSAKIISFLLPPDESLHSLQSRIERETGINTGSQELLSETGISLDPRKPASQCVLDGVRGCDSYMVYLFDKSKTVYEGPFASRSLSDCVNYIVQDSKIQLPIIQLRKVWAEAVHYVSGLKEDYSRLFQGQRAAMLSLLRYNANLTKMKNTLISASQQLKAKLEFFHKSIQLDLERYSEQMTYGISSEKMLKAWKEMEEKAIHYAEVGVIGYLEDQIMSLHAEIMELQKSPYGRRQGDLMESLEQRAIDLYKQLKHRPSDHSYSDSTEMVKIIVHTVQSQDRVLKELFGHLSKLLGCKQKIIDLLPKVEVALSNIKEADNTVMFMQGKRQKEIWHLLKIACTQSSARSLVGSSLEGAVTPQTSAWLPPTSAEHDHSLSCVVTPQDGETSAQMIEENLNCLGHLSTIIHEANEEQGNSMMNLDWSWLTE

MAP2K7 (human) = MAP2K7 (human) (UniProt O14733)
SRPK3 (human) = SRPK3 (human) (UniProt Q9UPE1)
YES1 (human) = YES1 (human) (UniProt P07947)
AKT2 (human) = AKT2 (human) (UniProt P31751)
PLK2 (human) = PLK2 (human) (UniProt Q9NYY3)
PRKX (human) = PRKX (human) (UniProt P51817)
LIMK1 (human) = LIMK1 (human) (UniProt P53667)
CSF1R (human) = CSF1R (human) (UniProt P07333)
HCK (human) = HCK (human) (UniProt P08631)
PDGFRA (human) = PDGFRA (human) (UniProt P16234)
Chain of PDGFRA (human) (P16234 whole entry, looked up): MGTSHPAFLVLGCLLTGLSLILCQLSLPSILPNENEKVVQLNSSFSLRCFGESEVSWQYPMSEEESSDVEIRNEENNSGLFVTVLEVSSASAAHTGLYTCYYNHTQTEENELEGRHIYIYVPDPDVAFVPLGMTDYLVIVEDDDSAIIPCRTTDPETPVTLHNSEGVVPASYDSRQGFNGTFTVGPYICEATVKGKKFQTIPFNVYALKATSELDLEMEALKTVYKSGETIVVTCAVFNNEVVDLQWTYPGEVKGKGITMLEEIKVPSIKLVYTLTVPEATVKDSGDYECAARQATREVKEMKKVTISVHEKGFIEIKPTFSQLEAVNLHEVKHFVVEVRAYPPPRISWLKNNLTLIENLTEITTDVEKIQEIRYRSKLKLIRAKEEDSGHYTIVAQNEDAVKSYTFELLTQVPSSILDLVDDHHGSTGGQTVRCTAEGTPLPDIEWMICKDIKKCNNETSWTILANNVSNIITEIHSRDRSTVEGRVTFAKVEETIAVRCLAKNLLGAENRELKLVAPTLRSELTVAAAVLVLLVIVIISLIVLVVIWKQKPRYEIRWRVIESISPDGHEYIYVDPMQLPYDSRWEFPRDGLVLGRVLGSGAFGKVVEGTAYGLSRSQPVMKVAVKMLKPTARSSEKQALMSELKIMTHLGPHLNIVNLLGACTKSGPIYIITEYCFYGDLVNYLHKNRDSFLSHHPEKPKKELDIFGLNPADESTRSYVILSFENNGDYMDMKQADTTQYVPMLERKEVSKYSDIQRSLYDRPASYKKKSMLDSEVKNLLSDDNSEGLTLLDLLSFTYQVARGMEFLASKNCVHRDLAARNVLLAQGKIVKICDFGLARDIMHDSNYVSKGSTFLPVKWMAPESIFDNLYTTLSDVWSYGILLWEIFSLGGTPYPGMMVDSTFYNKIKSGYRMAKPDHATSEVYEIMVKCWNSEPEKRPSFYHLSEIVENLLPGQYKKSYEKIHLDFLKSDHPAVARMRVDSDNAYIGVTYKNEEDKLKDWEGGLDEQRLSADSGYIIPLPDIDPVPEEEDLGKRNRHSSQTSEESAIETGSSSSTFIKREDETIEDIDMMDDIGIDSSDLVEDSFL

STK4 (human) = STK4 (human) (UniProt Q13043)
GRK6 (human) = GRK6 (human) (UniProt P43250)
PRKCQ (human) = PRKCQ (human) (UniProt Q04759)
MAP3K9 (human) = MAP3K9 (human) (UniProt P80192)

Chain of MERTK (human) (Q12866 whole entry, looked up): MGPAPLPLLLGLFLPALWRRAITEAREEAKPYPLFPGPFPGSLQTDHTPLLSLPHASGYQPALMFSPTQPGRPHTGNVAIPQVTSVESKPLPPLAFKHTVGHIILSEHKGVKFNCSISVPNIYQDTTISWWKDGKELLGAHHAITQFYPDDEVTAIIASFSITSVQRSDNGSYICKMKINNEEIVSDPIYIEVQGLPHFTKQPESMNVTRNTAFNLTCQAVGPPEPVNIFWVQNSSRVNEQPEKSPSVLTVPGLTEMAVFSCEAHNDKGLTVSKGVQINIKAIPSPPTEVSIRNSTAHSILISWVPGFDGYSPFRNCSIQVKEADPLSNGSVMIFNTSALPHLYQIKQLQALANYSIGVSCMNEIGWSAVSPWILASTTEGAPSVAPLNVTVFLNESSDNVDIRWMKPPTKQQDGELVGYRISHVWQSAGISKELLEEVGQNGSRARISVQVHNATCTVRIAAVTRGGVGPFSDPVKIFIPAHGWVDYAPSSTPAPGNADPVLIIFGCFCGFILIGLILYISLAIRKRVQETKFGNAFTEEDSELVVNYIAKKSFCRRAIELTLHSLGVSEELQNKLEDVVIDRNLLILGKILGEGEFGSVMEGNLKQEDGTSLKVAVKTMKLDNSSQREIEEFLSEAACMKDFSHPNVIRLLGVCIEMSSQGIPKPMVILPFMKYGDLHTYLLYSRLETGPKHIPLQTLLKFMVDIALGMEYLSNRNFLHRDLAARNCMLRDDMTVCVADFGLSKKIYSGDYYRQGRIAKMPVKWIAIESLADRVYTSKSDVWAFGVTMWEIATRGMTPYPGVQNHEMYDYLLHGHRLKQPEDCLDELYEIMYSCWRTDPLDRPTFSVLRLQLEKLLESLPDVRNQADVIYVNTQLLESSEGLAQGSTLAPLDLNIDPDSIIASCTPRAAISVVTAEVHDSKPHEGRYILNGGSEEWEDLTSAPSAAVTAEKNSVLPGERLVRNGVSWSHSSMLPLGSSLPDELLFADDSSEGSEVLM
Chain of MAPK1 (human) (P28482 whole entry, looked up): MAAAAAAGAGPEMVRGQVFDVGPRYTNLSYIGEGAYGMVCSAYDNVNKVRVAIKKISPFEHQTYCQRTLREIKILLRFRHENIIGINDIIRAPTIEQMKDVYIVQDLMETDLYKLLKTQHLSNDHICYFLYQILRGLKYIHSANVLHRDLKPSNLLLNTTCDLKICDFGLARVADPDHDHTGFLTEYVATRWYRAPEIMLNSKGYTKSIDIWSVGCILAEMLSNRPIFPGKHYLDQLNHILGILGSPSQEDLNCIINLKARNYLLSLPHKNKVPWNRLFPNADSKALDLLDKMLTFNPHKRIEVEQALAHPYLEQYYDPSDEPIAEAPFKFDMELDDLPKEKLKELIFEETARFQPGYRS

residual activity (MAPK1 (human); compound 10.0 µM): 33%
residual activity (TNK2 (human)): 66%
residual activity (MERTK (human); compound 10.0 µM): 28%
SMILES: CC(C)(C)c1nc2c3ccc(F)cc3c3c(=O)[nH]ccc3c2[nH]1

residual activity (ROS1 (human); compound 1.0 µM): 117%
residual activity (MAPK1 (human); compound 1.0 µM): 104%
residual activity (MKNK2 (human); compound 1.0 µM): 121%
residual activity (GSG2 (human); compound 1.0 µM): 87%
residual activity (HIPK3 (human); compound 1.0 µM): 107%
residual activity (PIM3 (human); compound 1.0 µM): 116%
residual activity (PRKCD (human); compound 1.0 µM): 94%
residual activity ([1]; compound 1.0 µM): 50%
residual activity (AURKA (human); compound 1.0 µM): 0%
residual activity (EPHA7 (human); compound 1.0 µM): 131%
residual activity (CSNK1G2 (human); compound 1.0 µM): 89%
residual activity (EPHA1 (human); compound 1.0 µM): 82%
residual activity (INSRR (human); compound 1.0 µM): 102%
residual activity (ROCK2 (human); compound 1.0 µM): 59%
residual activity ([2]; compound 1.0 µM): 113%
residual activity (PKN2 (human); compound 1.0 µM): 63%
residual activity (DAPK3 (human); compound 1.0 µM): 102%
residual activity (DCLK2 (human); compound 1.0 µM): 116%
residual activity (SRPK1 (human); compound 1.0 µM): 100%
residual activity (AKT3 (human); compound 1.0 µM): 103%
residual activity (GSK3A (human); compound 1.0 µM): 68%
residual activity (BRSK1 (human); compound 1.0 µM): 76%
residual activity (DDR2 (human); compound 1.0 µM): 113%
residual activity (MYLK3 (human); compound 1.0 µM): 107%
residual activity (CHUK (human); compound 1.0 µM): 120%
residual activity (MAP2K7 (human); compound 1.0 µM): 106%
residual activity (SRPK3 (human); compound 1.0 µM): 113%
residual activity (MERTK (human); compound 1.0 µM): 66%
residual activity (YES1 (human); compound 1.0 µM): 110%
residual activity (AKT2 (human); compound 1.0 µM): 98%
residual activity (PLK2 (human); compound 1.0 µM): 112%
residual activity (PRKX (human); compound 1.0 µM): 70%
residual activity (LIMK1 (human); compound 1.0 µM): 34%
residual activity (CSF1R (human); compound 1.0 µM): 86%
residual activity (HCK (human); compound 1.0 µM): 99%
residual activity (PDGFRA (human); compound 1.0 µM): 86%
residual activity (STK4 (human); compound 1.0 µM): 91%
residual activity (GRK6 (human); compound 1.0 µM): 100%
residual activity (PRKCQ (human); compound 1.0 µM): 103%
residual activity (MAP3K9 (human); compound 1.0 µM): 23%
SMILES: O=C(NCCCNc1nc(Nc2cccc(NC(=O)N3CCCC3)c2)ncc1I)c1cccs1

SMILES: O=C(N[C@@H](COc1ccc2[nH]c(=O)[nH]c2c1)c1ccccc1)c1cccn(Cc2ccc(F)c(F)c2)c1=O
residual activity (ROS1 (human); compound 10.0 µM): 111%
residual activity (MAPK1 (human); compound 10.0 µM): 89%
residual activity (MKNK2 (human); compound 10.0 µM): 101%
residual activity (GSG2 (human); compound 10.0 µM): 74%
residual activity (HIPK3 (human); compound 10.0 µM): 110%
residual activity (PIM3 (human); compound 10.0 µM): 97%
residual activity (PRKCD (human); compound 10.0 µM): 105%
residual activity ([1]; compound 10.0 µM): 106%
residual activity (AURKA (human); compound 10.0 µM): 107%
residual activity (EPHA7 (human); compound 10.0 µM): 103%
residual activity (CSNK1G2 (human); compound 10.0 µM): 97%
residual activity (TNK2 (human)): 101%
residual activity (EPHA1 (human); compound 10.0 µM): 107%
residual activity (INSRR (human); compound 10.0 µM): 108%
residual activity (ROCK2 (human); compound 10.0 µM): 109%
residual activity ([2]; compound 10.0 µM): 91%
residual activity (PKN2 (human); compound 10.0 µM): 96%
residual activity (DAPK3 (human); compound 10.0 µM): 121%
residual activity (DCLK2 (human); compound 10.0 µM): 121%
residual activity (SRPK1 (human); compound 10.0 µM): 104%
residual activity (AKT3 (human); compound 10.0 µM): 99%
residual activity (GSK3A (human); compound 10.0 µM): 102%
residual activity (BRSK1 (human); compound 10.0 µM): 109%
residual activity (DDR2 (human); compound 10.0 µM): 118%
residual activity (MYLK3 (human); compound 10.0 µM): 110%
residual activity (CHUK (human); compound 10.0 µM): 125%
residual activity (MAP2K7 (human); compound 10.0 µM): 95%
residual activity (SRPK3 (human); compound 10.0 µM): 114%
residual activity (MERTK (human); compound 10.0 µM): 95%
residual activity (YES1 (human); compound 10.0 µM): 91%
residual activity (AKT2 (human); compound 10.0 µM): 103%
residual activity (PLK2 (human); compound 10.0 µM): 97%
residual activity (PRKX (human); compound 10.0 µM): 107%
residual activity (LIMK1 (human); compound 10.0 µM): 97%
residual activity (CSF1R (human); compound 10.0 µM): 107%
residual activity (HCK (human); compound 10.0 µM): 110%
residual activity (PDGFRA (human); compound 10.0 µM): 108%
residual activity (STK4 (human); compound 10.0 µM): 103%
residual activity (GRK6 (human); compound 10.0 µM): 108%
residual activity (PRKCQ (human); compound 10.0 µM): 108%
residual activity (MAP3K9 (human); compound 10.0 µM): 91%
